Source: patent EP2860184A1, “Dihydrogenphosphate salt of Tenofovir disoproxil” (Zentiva, k.s., priority 2013, dated 2015)
Counter-ions that a name gives are not always drawn.

Assays:
[1] = Apparent solubility and dissolution rate of the salts (Figure 3); assay type: physicochemical; conditions: compared with other salts, including Tenofovir disoproxil fumarate
From the text: The active substance solubility is important for bioavailability of the drug.
• Figure 1: DSC of Tenofovir disoproxil dihydrogenphosphate • Figure 2: 1H NMR of Tenofovir disoproxil dihydrogenphosphate • Figure 3: The apparent solubility and dissolution rate of Tenofovir disoproxil salts • Figure 4: Typical HPLC chromatogram of Tenofovir disoproxil dihydrogenphosphate prepared from Tenofovir disoproxil base • Figure 5: SEM images of Tenofovir disoproxil dihydrogenphosphate prepared from Tenofovir disoproxil • Figure 6: Typical HPLC chromatogram of Tenofovir disoproxil dihydrogenphosphate prepared from Tenofovir disoproxil fumarate • Figure 7: SEM images of Tenofovir disoproxil dihydrogenphosphate prepared from Tenofovir disoproxil fumarate

[2] = Chemical stability stress test (HPLC purity before and after); assay type: physicochemical; conditions: for Starting HPLC purity (%): before the stress test; for HPLC purity (%) after the stress test: stress conditions: 80°C for 46 hours, 2760 min
Method: Physico-chemical properties (stability and solubility) of Tenofovir disoproxil dihydrogenphosphate were compared with other known salts (Tenofovir disoproxil fumarate, citrate, succinate, L-tartrate, D-tartrate, maleate) prepared according to published procedures. Table 2: Chemical stability of Tenofovir disoproxil and its salts (stress conditions: 80°C for 46 hours)
Column: Zorbax Eclipse XDB C18 RRHD, 100 x 3.0 mm (I.D.) x 1.8 um (Agilent), Run Time: 11.5 min., Injection Volume: 2 µl, Mobile Phase: MFA: 10mM K2HPO4 pH=7,0; MFB: ACN; MFA: 90-40-40-90; t: 0-7-9-9,5; F: 0,5 ml/min; 35°C

[3] = API solid form change during drug product manufacture (wet granulation); assay type: physicochemical
From the text: Moreover, we observed partial the conversion (about 30 %) of Tenofovir disoproxil fumarate (Formula II) in Tenofovir disoproxil hemifumarate (Formula III) during our formulation trials using wet granulation process.
Diffraction patterns were obtained with laboratory X'PERT PRO MPD PANalytical diffractometer, radiation used CuKα (λ = 1.542/Å). Generator settings: excitation voltage 45 kV, anodic current 40 mA. Scan description: scan type - gonio, measurement range 2 - 40º 2θ, step size 0.01º 2θ, step time: 0.5 s. Samples were measured as received on Si plate (zero background holder). Incident beam optics: programmable divergence slits (irradiated length 10 mm), 10 mm mask, 1/4º anti-scatter fixed slit, 0.02 rad Soller slits. Diffracted beam optics: X'Celerator detector, scanning mode, active length 2.122º, 0.02 rad Soller slits, anti-scatter slit 5.0 mm, Ni filter.
Tenofovir disoproxil dihydrogenphosphate (300 g), lactose monohydrate (206 g), microcrystalline cellulose (Avicel pH 101; 50 g), croscarmellose sodium (30 g), polyvinylpyrolidone K-25 (20 g) and magnesium stearate (10 g) were sieved. The mixture was loaded to high shear granulator. Purified water (150 ml) was sprayed on the blend in short time intervals and the mixture was kneaded to granules. The wet granules were dried in an oven at 60°C. The dried granules were milled and sieved. […]

[4] = in the presence of increased humidity and/or temperature; cited from earlier work

Row | Compound | Solubility [1] | Starting HPLC purity (%) [2] [%] | HPLC purity (%) after the stress test [2] [%] | changes in API solid form ([3]; manufacturing of a drug product) | conversion in Tenofovir disoproxil hemifumarate ([3]; formulation trials using wet granulation process) | Chemical stability compared with other salts ([2]; compared with fumarate, citrate, succinate, L-tartrate, D-tartrate, maleate, 80°C for 46 hours) | solid form conversion [4]
1 | CC(C)OC(=O)OCOP(=O)(CO[C@H](C)Cn1cnc2c(N)ncnc21)OCOC(=O)OC(C)C [Tenofovir disoproxil dihydrogenphosphate] | superior to other salts | 99.66 | 97.69 | no changes in API solid form | – | the most stable salt of Tenofovir disoproxil | –
2 | CC(C)OC(=O)OCOP(=O)(CO[C@H](C)Cn1cnc2c(N)ncnc21)OCOC(=O)OC(C)C [Tenofovir disoproxil L-tartrate] | – | 98.10 | 21.12 | – | – | – | –
3 | CC(C)OC(=O)OCOP(=O)(CO[C@H](C)Cn1cnc2c(N)ncnc21)OCOC(=O)OC(C)C [Tenofovir disoproxil D-tartrate] | – | 99.66 | 25.51 | – | – | – | –
4 | CC(C)OC(=O)OCOP(=O)(CO[C@H](C)Cn1cnc2c(N)ncnc21)OCOC(=O)OC(C)C [Tenofovir disoproxil (free base), 9-[-2-(R)-[[bis[[(isopropoxycarbonyl)oxy]methoxy]phosphinoyl]methoxy]propyl] adenine] | – | 95.66 | 6.13 | – | – | – | –

More lines, main results first:

Row | Solubility [1] | Starting HPLC purity (%) [2] [%] | HPLC purity (%) after the stress test [2] [%] | changes in API solid form ([3]; manufacturing of a drug product) | conversion in Tenofovir disoproxil hemifumarate ([3]; formulation trials using wet granulation process) | Compound | Chemical stability compared with other salts ([2]; compared with fumarate, citrate, succinate, L-tartrate, D-tartrate, maleate, 80°C for 46 hours) | solid form conversion [4]
5 | – | 99.81 | 4.08 | – | about 30% | CC(C)OC(=O)OCOP(=O)(CO[C@H](C)Cn1cnc2c(N)ncnc21)OCOC(=O)OC(C)C [Tenofovir disoproxil fumarate] | – | converts into Tenofovir disoproxil hemifumarate
6 | – | 99.04 | 54.16 | – | – | CC(C)OC(=O)OCOP(=O)(CO[C@H](C)Cn1cnc2c(N)ncnc21)OCOC(=O)OC(C)C [Tenofovir disoproxil succinate] | – | –
